Values after ≈ are worked out from the molar mass of the structure shown.
Tests used:
Test in all cases: Agar dilution MIC in DST agar (Ericsson and Sherris)
Format in all cases: cell-based
[1] = system: Pseudomonas aeruginosa K 799/61; details: for MIC Pseu. 799: in vitro, agar dilution, DST agar; for MIC: Pseudomonas aeruginosa, K799/61, read-out: MIC Pseu. 799
Excerpt: (§1) Die antibiotische Aktivität der Testverbindungen in vitro wurde durch die Agarverdünnungsmethode nach Ericsson, H.M., und Sherris, S.C., 1971, Acta Path. Microb. Scand. Section B, Suppl. No. 217, Bd. 1-90, in DST Agara ermittelt. Die gefundenen, das Wachstum der Testorganismen noch hemmenden Minimalkonzentrationen (MIC = minimum inhibiting concentrations) werden in Mikrogramm pro Milliliter (µg/ml) für die geprüften Verbindungen in der Tabelle 1 angegeben.

[2] = system: Staphylococcus aureus 10B; details: in vitro; for MIC: Staphylococcus aureus, 10B, read-out: MIC Staph. 10B
Excerpt: as §1

Escherichia coli 205 = details: for MIC Esch. 205: in vitro; for MIC: Escherichia coli, 205, in vitro, read-out: MIC Esch. 205
Excerpt: as §1

Proteus morganii 1518 = details: for MIC Prot. 1518: in vitro; for MIC: Morganella morganii, 1518, in vitro, read-out: MIC Prot. 1518
Excerpt: as §1

Escherichia coli 2018 = details: for MIC Esch. 2018: in vitro; for MIC: Escherichia coli, 2018, in vitro, read-out: MIC Esch. 2018
Excerpt: as §1

Proteus morganii 2359 = details: for MIC Prot. 2359: in vitro; for MIC: Morganella morganii, 2359, in vitro, read-out: MIC Prot. 2359
Excerpt: as §1

[3] = system: Salmonella Typhimurium 277; details: in vitro; for MIC: Salmonella enterica, TYPHIMURIUM, read-out: MIC Salm. 277
Excerpt: as §1

[4] = system: Staphylococcus aureus 2999; details: for MIC Staph. 2999: in vitro; for MIC: Staphylococcus aureus, 2999, in vitro, read-out: MIC Staph. 2999
Excerpt: as §1

| Compound | MIC Pseu. 799 [1] [µg/mL] | MIC Staph. 10B [2] [ng/mL] | MIC Esch. 205 (Escherichia coli 205) [µg/mL] | MIC Prot. 1518 (Proteus morganii 1518) [µg/mL] | MIC Esch. 2018 (Escherichia coli 2018) [µg/mL] | MIC Prot. 2359 (Proteus morganii 2359) [µg/mL] | MIC Salm. 277 [3] [µg/mL] | MIC Staph. 2999 [4] [ng/mL] | MIC [1] [µg/mL] | MIC [2] [ng/mL] | MIC (Escherichia coli 205) [µg/mL] | MIC (Proteus morganii 1518) [µg/mL] | MIC (Escherichia coli 2018) [µg/mL] | MIC (Proteus morganii 2359) [µg/mL] | MIC [3] [µg/mL] | MIC [4] [ng/mL] |
| --- | --- | --- | --- | --- | --- | --- | --- | --- | --- | --- | --- | --- | --- | --- | --- | --- |
| 4-(4-Propyliperazinyl)-imidazolo[4,5-c]rifamycin SV [Verbindung 32] | 8 | 1 | 8 | 8 | 8 | 8 | 32 | 1 |  |  |  |  |  |  |  |  |
| CO[C@H]1/C=C/O[C@@]2(C)Oc3c(C)c(O)c4c(O)c(c5[nH]c(N6CCC(N7CCCCC7)CC6)nc5c4c3C2=O)NC(=O)/C(C)=C\C=C\[C@H](C)[C@H](O)[C@@H](C)[C@@H](O)[C@@H](C)[C@H](OC(C)=O)[C@@H]1C [Verbindung 24, 4-(4-Piperidino-1-piperidyl-)-imidazolo[4,5-c]rifamycin SV] |  |  |  |  |  |  |  |  | 16 (≈ 18 µM) | 50 (≈ 0.0563 µM) | 8 (≈ 9.01 µM) | 8 (≈ 9.01 µM) | 4 (≈ 4.5 µM) | 4 (≈ 4.5 µM) | 16 (≈ 18 µM) | 10 (≈ 0.0113 µM) |
| 4-{4-[2-(1,3- Dioxolan-2-yl)-ethyl]-piperazinyl}-imidazolo-[4,5-c]rifamycin SV [Verbindung 62] | 32 | 20 | 32 | 8 | 32 | 8 | 128 | 20 |  |  |  |  |  |  |  |  |
| COC1C=COC2(C)Oc3c(C)c(O)c4c(O)c(c5nc(N(C)C(C)C)[nH]c5c4c3C2=O)NC(=O)C(C)=CC=CC(C)C(O)C(C)C(O)C(C)C(OC(C)=O)C1C (stereo not drawn) [Verbindung 8, 4-(N-Isopropyl-N-methylamino)-imidazolo[4,5-c]rifamycin SV] |  |  |  |  |  |  |  |  | 8 (≈ 10.1 µM) | 10 (≈ 0.0126 µM) | 8 (≈ 10.1 µM) | 8 (≈ 10.1 µM) | 8 (≈ 10.1 µM) | 8 (≈ 10.1 µM) | 32 (≈ 40.4 µM) | 10 (≈ 0.0126 µM) |
| CO[C@H]1/C=C/O[C@@]2(C)Oc3c(C)c(O)c4c(O)c(c5nc(N6CCCCCC6)[nH]c5c4c3C2=O)NC(=O)/C(C)=C\C=C\[C@H](C)[C@H](O)[C@@H](C)[C@@H](O)[C@@H](C)[C@H](OC(C)=O)[C@@H]1C [Verbindung 27, 4-(1-Perhydroazepinyl)-imidazolo[4,5-c]rifamycin SV] | 8 (≈ 9.77 µM) | 1 (≈ 0.00122 µM) | 8 (≈ 9.77 µM) | 2 (≈ 2.44 µM) | 8 (≈ 9.77 µM) | 8 (≈ 9.77 µM) | 32 (≈ 39.1 µM) | 1 (≈ 0.00122 µM) |  |  |  |  |  |  |  |  |
| CO[C@H]1/C=C/O[C@@]2(C)Oc3c(C)c(O)c4c(O)c(c5[nH]c(N6CCCCC6)nc5c4c3C2=O)NC(=O)/C(C)=C\C=C\[C@H](C)[C@H](O)[C@@H](C)[C@@H](O)[C@@H](C)[C@H](OC(C)=O)[C@@H]1C [Verbindung 21, 4-Piperidino-imidazolo[4,5-c]rifamycin SV] |  |  |  |  |  |  |  |  | 16 (≈ 19.9 µM) | 5 (≈ 0.00621 µM) | 4 (≈ 4.97 µM) | 4 (≈ 4.97 µM) | 4 (≈ 4.97 µM) | 4 (≈ 4.97 µM) | 16 (≈ 19.9 µM) | 5 (≈ 0.00621 µM) |
| CCN1CCN(c2nc3c4c(O)c5c(O)c(C)c6c(c5c3[nH]2)C(=O)[C@@](C)(O/C=C/[C@H](OC)[C@@H](C)[C@@H](OC(C)=O)[C@H](C)[C@H](O)[C@H](C)[C@@H](O)[C@@H](C)/C=C/C=C(/C)C(=O)N4)O6)CC1 [Verbindung 31, 4-(4-Ethylpiperazinyl)-imidazolo[4,5-c]rifamycin SV] | 8 (≈ 9.59 µM) | 2 (≈ 0.0024 µM) | 8 (≈ 9.59 µM) | 8 (≈ 9.59 µM) | 8 (≈ 9.59 µM) | 8 (≈ 9.59 µM) | 32 (≈ 38.4 µM) | 1 (≈ 0.0012 µM) |  |  |  |  |  |  |  |  |
| 4-[4-(l,3-Dimethylpropyl)-piperazinyl]-imidazolo[4,5-c]-rifamycin SV [Verbindung 43] | 16 | 10 | 8 | 8 | 4 | 8 | 32 | 5 |  |  |  |  |  |  |  |  |
| 4-(N-Benzyl-N-methylamino)-imidazolo[4,5-c]rifamycin SV [Verbindung 12] | 8 | 1 | 8 | 1 | 8 | 8 | 32 | 1 |  |  |  |  |  |  |  |  |
| CO[C@H]1/C=C/O[C@@]2(C)Oc3c(C)c(O)c4c(O)c(c5[nH]c(N(C)CCN(C)C)nc5c4c3C2=O)NC(=O)/C(C)=C\C=C\[C@H](C)[C@H](O)[C@@H](C)[C@@H](O)[C@@H](C)[C@H](OC(C)=O)[C@@H]1C [Verbindung 17, 4-[N-Methyl-N-(2-dimethylaminoethyl)-amino]-imidazolo-[4,5-c]rifamycin SV] |  |  |  |  |  |  |  |  | 64 (≈ 77.9 µM) | 5 (≈ 0.00608 µM) | 32 (≈ 38.9 µM) | 64 (≈ 77.9 µM) | 64 (≈ 77.9 µM) | 32 (≈ 38.9 µM) | 64 (≈ 77.9 µM) | 5 (≈ 0.00608 µM) |
| 4-(4-Isobutyl-2,5-dimethyl-piperazinyl)-imidazolo[4,5-c]-rifamycin SV [Verbindung 76] | 32 | 10 | 32 | 8 | 8 | 8 | 32 | 10 |  |  |  |  |  |  |  |  |
| 4-(4-Methoxycarbonylmethylpiperazinyl)-imidazolo[4,5-c]-rifamycin SV [Verbindung 71] | 128 | 20 | 32 | 32 | 32 | 32 | 128 | 20 |  |  |  |  |  |  |  |  |
| COC(CN(C)c1nc2c([nH]1)c1c(O)c3c(O)c(C)c4c(c32)C(=O)[C@@](C)(O/C=C/[C@H](OC)[C@@H](C)[C@@H](OC(C)=O)[C@H](C)[C@H](O)[C@H](C)[C@@H](O)[C@@H](C)/C=C/C=C(/C)C(=O)N1)O4)OC [Verbindung 15, 4-[N-(2,2-Dimethoxyethyl)-N-methylamino]-imidazolo[4,5-c]-rifamycin SV] |  |  |  |  |  |  |  |  | 16 (≈ 19.1 µM) | 5 (≈ 0.00596 µM) | 8 (≈ 9.54 µM) | 8 (≈ 9.54 µM) | 8 (≈ 9.54 µM) | 4 (≈ 4.77 µM) | 32 (≈ 38.1 µM) | 5 (≈ 0.00596 µM) |
| 4-[4-(2,2-Dimethoxyethyl)-piperazinyl]-imidazolo- [4,5-c]rifamycin SV [Verbindung 65] | 32 | 50 | 32 | 32 | 32 | 32 | 128 | 10 |  |  |  |  |  |  |  |  |
| CO[C@H]1/C=C/O[C@@]2(C)Oc3c(C)c(O)c4c(O)c(c5nc(N6CCN(Cc7ccccn7)CC6)[nH]c5c4c3C2=O)NC(=O)/C(C)=C\C=C\[C@H](C)[C@H](O)[C@@H](C)[C@@H](O)[C@@H](C)[C@H](OC(C)=O)[C@@H]1C [Verbindung 60, 4-[4-(2-Pyridylmethyl)-piperazinyl]-imidazolo[4,5-c]-rifamycin SV] |  |  |  |  |  |  |  |  | 64 (≈ 71.3 µM) | 20 (≈ 0.0223 µM) | 32 (≈ 35.7 µM) | 32 (≈ 35.7 µM) | 32 (≈ 35.7 µM) | 32 (≈ 35.7 µM) | 128 (≈ 143 µM) | 20 (≈ 0.0223 µM) |
| COC1C=COC2(C)Oc3c(C)c(O)c4c(O)c(c5nc(N(C)C6CCCC6)[nH]c5c4c3C2=O)NC(=O)C(C)=CC=CC(C)C(O)C(C)C(O)C(C)C(OC(C)=O)C1C (stereo not drawn) [Verbindung 10, 4-(N-Cyclopentyl-N-methylamino)-imidazolo[4,5-c]rifamycin SV] |  |  |  |  |  |  |  |  | 8 (≈ 9.77 µM) | 5 (≈ 0.00611 µM) | 4 (≈ 4.88 µM) | 4 (≈ 4.88 µM) | 4 (≈ 4.88 µM) | 4 (≈ 4.88 µM) | 16 (≈ 19.5 µM) | 5 (≈ 0.00611 µM) |
| CCOC(=O)C1CCN(c2nc3c([nH]2)c2c(O)c4c(O)c(C)c5c(c43)C(=O)[C@@](C)(O/C=C/[C@H](OC)[C@@H](C)[C@@H](OC(C)=O)[C@H](C)[C@H](O)[C@H](C)[C@@H](O)[C@@H](C)/C=C/C=C(/C)C(=O)N2)O5)CC1 [Verbindung 22, 4-(4-Ethoxycarbonyl-1-piperidyl)-imidazolo[4,5-c]rifamycin SV] |  |  |  |  |  |  |  |  | 16 (≈ 18.2 µM) | 5 (≈ 0.0057 µM) | 16 (≈ 18.2 µM) | 4 (≈ 4.56 µM) | 8 (≈ 9.12 µM) | 4 (≈ 4.56 µM) | 32 (≈ 36.5 µM) | 5 (≈ 0.0057 µM) |
| 4-[4-(2-Tetrahydrofurylmethyl)-piperazinyl]-imidazolo-[4,5-c]rifamycin SV [Verbindung 61] | 32 | 5 | 16 | 4 | 4 | 4 | 32 | 5 |  |  |  |  |  |  |  |  |

From patent EP0049683A2, “Imidazo-rifamycines, process for their preparation, pharmaceutical preparations containing them and their use” (CIBA-GEIGY AG, priority 1980, dated 1982)
